“Also recorded” adds a separate entry of the source. Where a name gives a salt, the structure may show the parent alone. Read-outs that look alike come from different tables or passages of the source.
What was measured:
[1] = tested on: E3: Enzyme derived from Micrococcus luteus; settings: cited from earlier work
[2] = biological target: T1, acetylpolyamine amidohydrolase (the present enzyme, product purified to homogeneity) (Mycoplana ramosa, UniProt Q48935); test: Effects of various compounds upon enzyme activity, product purified to homogeneity (Method 1); assay type: biochemical, Mycoplana bullata; settings: for activity at 100 µM: read-out: Relative Activity (%) at 0.1 mM
T1 construct: novel acetylpolyamine amidohydrolase of the present invention accumulated within the grown cells; made in house; host or cells: Mycoplana (natural producer)
T1 sequence (Q48935 1-341): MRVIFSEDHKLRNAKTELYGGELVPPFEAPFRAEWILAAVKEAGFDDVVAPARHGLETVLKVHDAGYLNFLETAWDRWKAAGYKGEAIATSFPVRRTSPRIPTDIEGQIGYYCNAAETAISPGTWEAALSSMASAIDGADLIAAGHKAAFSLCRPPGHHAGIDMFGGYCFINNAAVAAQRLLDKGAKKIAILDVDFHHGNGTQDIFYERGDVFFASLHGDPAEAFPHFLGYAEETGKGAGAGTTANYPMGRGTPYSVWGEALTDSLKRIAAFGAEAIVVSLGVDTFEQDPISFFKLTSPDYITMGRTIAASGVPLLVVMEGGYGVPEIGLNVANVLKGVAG
Text: [Method 1] (Standard assay)
In this standard method for measuring the activity of acetylpolyamine amidohydrolases, the enzyme being tested is allowed to react with acetylputrescine as substrate to produce putrescine, which is in turn oxidized with putrescine oxidase. Hydrogen peroxide thus formed is then subjected to oxidative condensation with phenol and 4-aminoantipyrine in the presence of horseradish peroxidase to form quinoneimine pigment. The rate of increase in the absorbance of a colored reaction solution at 500 nm is measured with a spectrophotometer.
(§1) The above reagents, (b) through (h), were put in a cuvette (d: 1.0 cm) and the mixture was preincubated at 37° C. for 2 minutes. The substrate solution (a) was then added and the resulting mixture was held at 37° C., absorbance at 500 nm was measured over a period of 3 to 5 minutes, and the change in absorbance per minute (ΔODsample) was determined from the linear portion of the plotted curve. For control, the same procedure as above was carried out, using distilled water as reference.
(§2) One unit of acetylpolyamine amidohydrolase is defined as its amount necessary to hydrolyze 1 μmole of acetylputrescine at 37° C. for one minute (or the amount necessary to form 0.5 μmole of quinoneimine pigment formed in the method for measuring the enzyme activity described above).
To 50 mM Tris-HCl buffer (pH 7.0) containing the present enzyme, was added each of the compounds being tested to a concentration of 0.1 mM or 1.0 mM. The mixture was incubated at 37° C. for 10 minutes, a sample solution was taken out, and its residual activity was measured according to the procedure described in [Method 1].

[3] = biological target: T2, acetylpolyamine amidohydrolase (the present enzyme, partially purified product) (Mycoplana ramosa, UniProt Q48935); test: Effects of inhibitors and metal ions, partially purified present enzyme; assay type: biochemical, Mycoplana bullata; settings: for inhibition at 1000 µM: read-out: Relative activity in presence of inhibitor/metal ion, the present enzyme; for Inhibition of the present enzyme (in words): partially purified product
T2 construct: novel acetylpolyamine amidohydrolase of the present invention accumulated within the grown cells; made in house; host or cells: Mycoplana (natural producer; cells grown in culture)
T2 sequence (Q48935 1-341): T1 sequence (Q48935 1-341)
Protocol: Activity of the present enzyme (partially purified products) is measured according to the following procedure. That is, 0.1 ml of an enzyme solution is added to a reagent solution consisting of 1.5 ml of 0.1 M phosphate buffer (pH 7.0), 0.05 ml of 50 mM acetylpolyamine, 0.4 U of putrescine oxidase (when acetylputrescine, acetylcadaverine or acetylspermidine is used as substrate) or polyamine oxidase (when acetylspermidine or acetylspermine is used as substrate), 0.5 ml of 2.4 mM 4-aminoantipyrine, 0.5 ml of 42 mM phenol and 20 U of peroxidase. The mixture is incubated at 37° C., and the absorbance of quinoneimine pigment formed at 500 nm is measured.
The effects of various inhibitors and metal ions upon the present enzyme and the other known enzymes were examined using acetylputrescine as substrate.

[4] = tested on: E2: Enzyme derived from Arthrobacter sp.; settings: concentration of 1mM; acetylputrescine as substrate; cited from earlier work
[5] = tested on: E1: Enzyme derived from Streptomyces avellaneus; settings: concentration of 1mM; acetylputrescine as substrate; cited from earlier work
[6] = tested on: E2: Enzyme derived from Arthrobacter sp. (acetylpolyamine amidohydrolase); settings: pH 7.0, cited from earlier work
[7] = tested on: E1: Enzyme derived from Streptomyces avellaneus (acetylpolyamine amidohydrolase); settings: cited from earlier work
[8] = biological target: T1, acetylpolyamine amidohydrolase (the present enzyme, product purified to homogeneity); test: Enzyme activity on acetylpolyamine substrates, product purified to homogeneity (Method 2 / Method 3); assay type: biochemical, Mycoplana bullata; settings: 37° C., phosphate and borate buffers, per substrate
Text: [Method 2] (Assay when acetylputrescine, acetylcadaverine, N^1 -acetylspermidine and N^8 -acetylspermidine are used as substrate:)
The acetylpolyamine can be hydrolyzed by the acetylpolyamine amidohydrolase, as described in [Method 1], and the corresponding free polyamine thus formed is then oxidized by putrescine oxidase. Putrescine oxidase derived from Micrococcus rubens is known to have an activity upon putrescine, cadaverine and spermidine [Adachi, et al., Agric. Biol. Chem, 30, 1202 (1966)]. […] The actual analytical procedure is as described below.
as §1, with “added,” for “added”, “incubated” for “held”, “C. Absorbance” for “C., absorbance”
as §2
[Method 3] (Assay when acetylspermine is used as substrate:)
Acetylspermine is hydrolyzed by the action of acetylpolyamine amidohydrolase into free form of spermine. The free form of spermine can be oxidized by a polyamine oxidase derived from Aspergillus terreus to produce hydrogen peroxide. Two molar equivalents of hydrogen peroxide is formed from one molar equivalent of spermine. Thus, the enzyme activity can be measured by quantitative determination of the hydrogen peroxide according to the method described above. However, since the above polyamine oxidase also acts upon acetylspermine, it is impossible to exactly measure the activity of acetylpolyamine amidohydrolase by the standard assay. […] The actual procedure is described below.
Reagents (b) through (d) given in item (1) were put in a test tube and the mixture was preincubated at 37° C. for 2 minutes. The substrate solution (a) was then added, the resulting mixture was incubated at 37° C. for 10 minutes, and the reaction was stopped by addition of the termination (e). A sample solution (100 μl) was taken from the reaction mixture and subjected to HPLC as described above to separate free form of spermine from acetylspermine. Generally, acetylspermine is eluted at a position of 38 minutes after the start of elution and free form of spermine at a position of 41 minutes after the start of elution. A sample solution (200 μl), taken from the eluate containing free form of spermine, was mixed in a cuvette with reagents (a) through (e) given in item (2) above, the mixture was incubated at 37° C. for 10 minutes, and the absorbance at 755 nm was measured. For control, the same procedure as above was carried out using 200 μl of Elunt A in place of the sample solution, as reference.
The concentration of free form of spermine in the reaction mixture can be determined from a calibration curve previously prepared on the basis of aqueous soluitons of free form of spermine with different concentrations. If the concentration of free form of spermine contained in 150 μl of the reaction mixture is taken as P (mM), then the potency (A) for 1 ml of the enzyme solution can be expressed by the following equation: […]
The activities upon acetylputrescine, acetylcadaverine, N^1 -acetylspermidine and N^8 -acetylspermidine were measured by [Method 2] in a phosphate buffer (pH 9.0) at a substrate concentration of 0.833 mM, and the activity upon acetyl-spermine was measured by [Method 3] under the same conditions. […] Km values, determined from the Lineweaver-Burk plot, are also listed in the same table. […]

[9] = compound 0.1 mM, 50 mM Tris-HCl pH 7.0, 37° C., 10 minutes, residual activity
[10] = compound 1.0 mM, 50 mM Tris-HCl pH 7.0, 37° C., 10 minutes, residual activity
[11] = concentration of 1mM, acetylputrescine as substrate
[12] = concentration of 1mM, acetylputrescine as substrate, no addition = 100%
[13] = compound 1.0 mM, 50 mM Tris-HCl pH 7.0, 37° C., 10 minutes, residual activity, read-out: Relative Activity (%) at 1.0 mM

Row | Molecule | Relative Activity (%) at 1.0 mM [2, 10] | Relative activity in presence of inhibitor/metal ion, E3 [1, 11] | Relative activity in presence of inhibitor/metal ion, the present enzyme [3, 12] | Relative activity in presence of inhibitor/metal ion, E2 [4] | Relative activity in presence of inhibitor/metal ion, E1 [5] | other results
1 | Oc1cccc2cccnc12 [8-Hydroxyquinoline] | – | – | – | – | – | Relative activity in presence of inhibitor/metal ion, E3 [1]: 98; Inhibition of the present enzyme (in words) [2]: considerably inhibited; Relative Activity (%) at 0.1 mM ([2]; pH 7): 57%; Relative Activity (%) at 1.0 mM ([2]; pH 7): 66%; Relative activity in presence of inhibitor/metal ion, the present enzyme [3]: 3
2 | O=[N+]([O-])[O-].[Ag+] [AgNO3] | 41% | – | – | – | – | Relative Activity (%) at 0.1 mM [2, 9]: 107%; Inhibition of the present enzyme (in words) ([2]; purified to homogeneity): inhibited
3 | [Cl-].[Cl-].[Co+2] [CoCl2] | 105% | – | – | – | – | –
4 | [Cu+2] [Cu^2+] | – | 26% | 99% | – | – | –
5 | CCN(CC)C(=S)S [DDC, Diethyldithiocarbamate] | – | – | – | – | – | activity at 100 µM [2, 9]: 93%; activity at 1000 µM [2, 13]: 94%; inhibition at 1000 µM [3, 12]: 0%
6 | O=C(O)CN(CCN(CC(=O)O)CC(=O)O)CC(=O)O [EDTA · 2Na] | – | – | – | – | – | Inhibition of the present enzyme (in words) [2]: no inhibitory action; activity at 1000 µM ([2]; pH 7, read-out: Relative Activity (%) at 1.0 mM): 97%
7 | NO [Hydroxylamine] | – | – | 24% | – | – | –
8 | [Cl-].[Cl-].[Mg+2] [MgCl2] | 85% | – | – | – | – | Relative Activity (%) at 0.1 mM [2, 9]: 87%
9 | [Mg+2] [Mg^2+] | – | 99% | 97% | 112% | 104% | Inhibition of the present enzyme (in words) ([2]; purified to homogeneity): inhibited
10 | [Mn+2] [Mn^2+] | – | 50% | 124% | 101% | 82% | –
11 | [N-]=[N+]=[N-].[Na+] [NaN3] | 95% | 98% | 90% | 99% | 93% | –
12 | [Cl][Ni][Cl] [NiCl2] | 90% | – | – | – | – | –
13 | [Ni+2] [Ni^2+] | – | 33% | 81% | 55% | 3% | Inhibition of the present enzyme (in words) [3]: hardly inhibited
14 | O=S(=O)(F)Cc1ccccc1 [Phenylmethanesulfonyl fluoride] | 90% | – | – | – | – | Relative Activity (%) at 0.1 mM [2, 9]: 86%; Inhibition of the present enzyme (in words) ([2]; purified to homogeneity): slightly inhibited
15 | NNC(N)=O [Semicarbazide hydrochloride] | – | – | – | – | – | activity at 100 µM [2, 9]: 103%; activity at 1000 µM [2, 13]: 91%
16 | [Cl-].[Cl-].[Zn+2] [ZnCl2] | 22% | – | – | – | – | Relative Activity (%) at 0.1 mM [2, 9]: 1%
17 | [Zn+2] [Zn^2+] | – | 4% | 100% | 32% | 3% | Inhibition of the present enzyme (in words) ([2]; purified to homogeneity): inhibited; also recorded: most remarkably; Inhibition of the present enzyme (in words) [3]: hardly inhibited
18 | c1ccc(-c2ccccn2)nc1 [a,a'-Dipyridyl] | – | – | – | – | – | activity at 1000 µM [2, 13]: 92%
19 | c1cnc2c(c1)ccc1cccnc12 [o-Phenanthroline] | – | 33% | – | 94% | 14% | activity at 1000 µM [2, 13]: 95%; Inhibition of the present enzyme (in words) ([2]; purified to homogeneity): no inhibitory action; inhibition at 1000 µM [3, 12]: 68%
20 | O=C(O)c1cc[c]([Hg][Cl])cc1 [pCMB, -p(Chloromercuri)benzoic acid] | 90% | 98% | 4% | 8% | 0% | Relative Activity (%) at 0.1 mM [2, 9]: 107%; Inhibition of the present enzyme (in words) ([2]; purified to homogeneity): slightly inhibited
21 | Acetylspermidine | – | – | – | – | – | Relative activity, E2 ([6]; activity against acetylputrescine defined as 100): 30%; Km [6]: 500 µM; Relative activity, E1 ([7]; pH 7.0, activity against acetylputrescine defined as 100): 9.1%; Km ([7]; pH 7.0, read-out: Km, E1): 1100 µM; Relative activity, St. avellaneus enzyme ([7]; reported reference data in Table 5, acetylputrescine = 100): 9.1%; Km ([7]; reported reference data in Table 5, read-out: Km, St. avellaneus enzyme): 1100 µM; Optimum pH [8]: 9

Reference: US4981788A, “Novel acetylpolyamine amidohydrolase” (Kyowa Hakko Kogyo Co., Ltd., priority 1987, dated 1991)
